{"source": "paper PMC5115768", "about": "“Crystal Structure and Pyridoxal 5-Phosphate Binding Property of Lysine Decarboxylase from Selenomonas ruminantium” (PLoS ONE, 2016)", "key": {"[1]": {"target": "T1, SrLDC (lysine decarboxylase from Selenomonas ruminantium) (Pseudoselenomonas ruminantium, UniProt O50657)", "T1 construct": "gene ldc; residues 1-399 as printed (count probably includes the C-terminal 6xHis; sheet domain ends at Val393); pET-22b(+), C-terminal 6xHis kept; E. coli BL21(DE3)-T1R", "T1 sequence (O50657 whole entry, the tested form may be a part)": "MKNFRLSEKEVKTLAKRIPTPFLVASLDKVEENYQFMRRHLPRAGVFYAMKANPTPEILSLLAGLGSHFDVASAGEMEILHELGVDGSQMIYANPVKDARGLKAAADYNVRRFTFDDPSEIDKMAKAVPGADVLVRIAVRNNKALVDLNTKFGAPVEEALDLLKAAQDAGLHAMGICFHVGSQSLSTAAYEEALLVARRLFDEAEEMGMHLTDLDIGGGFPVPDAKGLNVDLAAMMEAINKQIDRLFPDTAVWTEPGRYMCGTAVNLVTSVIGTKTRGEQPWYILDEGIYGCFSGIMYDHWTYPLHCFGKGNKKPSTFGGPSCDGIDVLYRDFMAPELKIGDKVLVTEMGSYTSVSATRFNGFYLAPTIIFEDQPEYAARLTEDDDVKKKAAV", "test": "isothermal titration calorimetry, independent binding model"}, "[2]": {"target": "T1, SrLDC (lysine decarboxylase from Selenomonas ruminantium)", "test": "X-ray crystal structure, […] Å", "format": "binding", "details": "PLP-complexed crystal soaked with 10 mM L-lysine for 30 min; cadaverine observed instead; pH 4.2; active site at dimer interface"}, "[3]": {"target": "Lysine decarboxylase from Selenomonas ruminantium (Selenomonas ruminantium)", "test": "crystal structure; three crystal forms: apo I (P43212, one molecule per asymmetric unit, dimer generated by crystallographic symmetry), apo II (C2, a dimer in the asymmetric unit), PLP/cadaverine complex (P6322, one molecule per asymmetric unit); hanging-drop vapor diffusion at 20°C; protein in 40 mM Tris-HCl, pH 8.0"}}}
{"compound": "Cc1ncc(COP(=O)(O)O)c(C=O)c1O", "note": "[PLP]", "values": [{"measurement": "Kd", "setting": "[1]", "value": 72, "unit": "µM"}]}
{"compound": "NCCCCCN", "note": "[cadaverine]", "values": [{"measurement": "X-ray crystal structure, 2.5 Å", "setting": "[2]", "value": "soaked the crystals of SrLDC complexed with PLP in L-lysine, a cadaverine molecule was observed"}]}
{"compound": "Lysine decarboxylase from Selenomonas ruminantium (enzyme)", "values": [{"measurement": "stoichiometry N", "setting": "[3]", "value": 2}]}
